Source: US20250144067A1, “PERSONALIZED STARVATION THERAPY FOR CANCER” (Faeth Therapeutics, Inc., priority 2021, published 2025)
Counter-ions that a name gives are not always drawn. Like-named read-outs stand apart in the source and are kept apart here.

What was measured:
[1] = tested on: NCI-H292 lung cancer cells; assay: FDA drug screening, complete media vs cholesterol-free media with simvastatin (TABLE 2); format: cell-based, human
[2] = tested on: NCI-H292 lung cancer cells; assay: FDA drug screening, complete media vs cholesterol-free media without statin (TABLE 1); format: cell-based, human
[3] = NCI-H292 cells, cholesterol-free media with simvastatin 0.04 μM, FDA drug library screen (TABLE 2)
[4] = NCI-H292 cells, complete media, FDA drug library screen (TABLE 2)
[5] = complete media minus cholesterol-free media + simvastatin (0.04 μM), >0 enhanced anti-cancer activity, about 0 neutral, <0 antagonist
[6] = NCI-H292 cells, cholesterol-free media without statin, FDA drug library screen
[7] = NCI-H292 cells, complete media, FDA drug library screen
[8] = complete vs cholesterol-free media, >0 enhanced anti-cancer activity, about 0 neutral, <0 antagonist
[9] = NCI-H292 cells, FDA library drug in cholesterol-free media with simvastatin 0.04 μM
[10] = NCI-H292 cells, FDA library drug in complete media
[11] = complete media vs cholesterol-free media + simvastatin (0.04 μM), >0 enhanced anti-cancer activity, about 0 neutral, <0 antagonist
[12] = Complete minus Cholesterol-free, >0 enhanced anti-cancer activity, about 0 neutral, <0 antagonist
[13] = NCI-H292 cells, cholesterol-free media without statin
[14] = NCI-H292 cells, cholesterol-free media with simvastatin 0.04 μM, cell growth value in FDA drug screen
[15] = NCI-H292 cells, complete media, cell growth value in FDA drug screen
[16] = complete media minus cholesterol-free media + simvastatin, >0 enhanced anti-cancer activity, about 0 neutral, <0 antagonist
[17] = complete vs cholesterol-free media, greater than 0 enhanced anti-cancer activity, about 0 neutral, below 0 antagonists
[18] = NCI-H292 cells, FDA drug library screen, cholesterol-free media with simvastatin 0.04 μM
[19] = NCI-H292 cells, FDA drug library screen, complete media
[20] = Complete minus Cholesterol-free, greater than 0 enhanced anti-cancer activity, about 0 neutral, below 0 antagonists
[21] = NCI-H292 cells in cholesterol-free media without statin
[22] = NCI-H292 cells in complete media
[23] = Complete minus Cholesterol-free, greater than 0 enhanced anti-cancer activity, about 0 neutral, below 0 antagonist
[24] = NCI-H292 cells, FDA drug library screen, cholesterol-free media without statin
[25] = NCI-H292 cells, cholesterol-free media with simvastatin 0.04 μM, […]
[26] = NCI-H292 cells, complete media, […]
[27] = complete media minus cholesterol-free media + simvastatin, […]
[28] = Complete minus Cholesterol-free, […]
[29] = NCI-H292 cells, drug in cholesterol-free media with simvastatin 0.04 μM
[30] = NCI-H292 cells, drug in complete media
[31] = complete media vs cholesterol-free media + simvastatin (0.04 μM), […]

Cc1nc(Nc2ccc(F)cc2)nc(N2CCc3ccccc3C2C)c1C (stereo not shown) [Revaprazan (hydrochloride)]
Cholesterol-free media + simvastatin (0.04 μM) [1, 3]: 1.005
Complete Media [1, 4]: 0.9357
Difference [1, 5]: −0.07
Cholesterol-free [2, 6]: 1.192
Complete [2, 7]: 1.344
Difference [2, 8]: 0.15

CNC(=O)c1c(I)c(NC(C)=O)c(I)c(C(=O)O)c1I [Iotalamic acid]
Cholesterol-free media + simvastatin (0.04 μM) [1, 9]: 1.459
Complete Media [1, 10]: 0.9854
Difference [1, 11]: −0.47
Difference [2, 12]: −0.29
Cholesterol-free [2, 13]: 1.385
Complete ([2]; NCI-H292 cells, complete media): 1.091

CCCCCCCCc1ccc(CCC(N)(CO)CO)cc1 [Fingolimod (hydrochloride)]
Cholesterol-free media + simvastatin (0.04 μM) [1, 14]: 0.9867
Complete Media [1, 15]: 1.023
Difference [1, 16]: 0.04
Cholesterol-free [2, 13]: 1.335
Complete ([2]; NCI-H292 cells, complete media): 0.8744
Difference [2, 17]: −0.46

Cc1cccc(C)c1NC(=O)C1CCCCN1C (stereo not shown) [Mepivacaine (hydrochloride)]
Cholesterol-free media + simvastatin (0.04 μM) [1, 18]: 1.253
Complete Media [1, 19]: 1.396
Difference [1, 16]: 0.14
Difference [2, 20]: −0.61
Cholesterol-free [2, 21]: 1.413
Complete [2, 22]: 0.805

N=C(N)NC(=O)c1nc(Cl)c(N)nc1N [Amiloride (hydrochloride)]
Cholesterol-free media + simvastatin (0.04 μM) [1, 18]: 1.016
Complete Media [1, 19]: 0.8717
Difference [1, 11]: −0.14
Difference [2, 23]: −0.17
Cholesterol-free [2, 24]: 1.642
Complete [2, 19]: 1.47

O=C(Nc1ccccc1)c1ccccc1O [Salicylanilide]
Cholesterol-free media + simvastatin (0.04 μM) [1, 25]: 1.321
Complete Media [1, 26]: 1.359
Difference [1, 27]: 0.04
Difference [2, 28]: −0.19
Cholesterol-free [2, 24]: 1.231
Complete [2, 19]: 1.046

C[C@@H](NCCCc1cccc(C(F)(F)F)c1)c1cccc2ccccc12 [Cinacalcet (hydrochloride)]
Cholesterol-free media + simvastatin (0.04 μM) [1, 14]: 0.9304
Complete Media [1, 15]: 0.9877
Difference [1, 16]: 0.06
Cholesterol-free [2, 13]: 1.099
Complete ([2]; NCI-H292 cells, complete media): 0.7862
Difference [2, 17]: −0.31

CCN(C)C(=O)Oc1cccc([C@H](C)N(C)C)c1 [Rivastigmine]
Cholesterol-free media + simvastatin (0.04 μM) [1, 25]: 1.229
Complete Media [1, 26]: 1.345
Difference [1, 27]: 0.12
Difference [2, 28]: −0.61
Cholesterol-free [2, 21]: 1.742
Complete [2, 22]: 1.133

c1cc(CN2CCCNCCNCCCNCC2)ccc1CN1CCCNCCNCCCNCC1 [Plerixafor (octahydrochloride)]
Cholesterol-free media + simvastatin (0.04 μM) [1, 9]: 1.159
Complete Media [1, 10]: 0.812
Difference [1, 11]: −0.35
Difference [2, 23]: −0.08
Cholesterol-free [2, 24]: 1.221
Complete [2, 19]: 1.137

COC1=CC(=O)OC(/C=C/c2ccccc2)C1 (single isomer, unassigned; (+)) [(+)-Kavain]
Cholesterol-free media + simvastatin (0.04 μM) [1, 25]: 1.009
Complete Media [1, 26]: 1.093
Difference [1, 27]: 0.08
Difference [2, 28]: −0.08
Cholesterol-free [2, 24]: 1.138
Complete [2, 19]: 1.054

Cc1ccccc1C(=O)Nc1ccc(C(=O)N2CCCC(N(C)C)c3ccccc32)cc1 (stereo not shown) [Mozavaptan (hydrochloride)]
Cholesterol-free media + simvastatin (0.04 μM) [1, 14]: 1.17
Complete Media [1, 15]: 1.196
Difference [1, 16]: 0.03
Difference [2, 20]: −0.56
Cholesterol-free [2, 21]: 1.248
Complete [2, 22]: 0.6877

O=C1OC(OC(=O)c2cccnc2Nc2cccc(C(F)(F)F)c2)c2ccccc21 (stereo not shown) [Talniflumate]
Cholesterol-free media + simvastatin (0.04 μM) [1, 29]: 1.554
Complete Media [1, 30]: 1.302
Difference [1, 11]: −0.25
Cholesterol-free [2, 6]: 0.679
Complete [2, 7]: 1.267
Difference [2, 8]: 0.59

CC(C)(C)[C@@H]1NC(=O)O[C@@H]2CCC[C@H]2OC/C=C/C(F)(F)c2nc3ccccc3nc2O[C@@H]2C[C@@H](C(=O)N[C@]3(C(=O)NS(=O)(=O)C4(C)CC4)C[C@H]3C(F)F)N(C2)C1=O [Glecaprevir]
Cholesterol-free media + simvastatin (0.04 μM) [1, 14]: 1.021
Complete Media [1, 15]: 1.126
Difference [1, 16]: 0.11
Difference [2, 12]: −0.04
Cholesterol-free [2, 6]: 0.8867
Complete [2, 7]: 0.8478

CO[C@@H]1[C@H](N(C)C(=O)c2ccccc2)C[C@H]2O[C@]1(C)n1c3ccccc3c3c4c(c5c6ccccc6n2c5c31)C(=O)NC4 [Midostaurin]
Cholesterol-free media + simvastatin (0.04 μM) [1, 18]: 0.6712
Complete Media [1, 19]: 0.5312
Difference [1, 11]: −0.14
Difference [2, 12]: 0.06
Cholesterol-free [2, 6]: 0.3336
Complete [2, 7]: 0.3958

CN1C(=O)CCS(=O)(=O)C1c1ccc(Cl)cc1 (stereo not shown) [Chlormezanone]
Cholesterol-free media + simvastatin (0.04 μM) [1, 9]: 1.449
Complete Media [1, 10]: 1.114
Difference [1, 31]: −0.34
Cholesterol-free [2, 6]: 0.6871
Complete [2, 7]: 0.9881
Difference ([2]; complete vs cholesterol-free media, […]): 0.30

Clc1ccccc1CN1CCc2sccc2C1 [Ticlopidine (hydrochloride)]
Cholesterol-free media + simvastatin (0.04 μM) [1, 14]: 1.416
Complete Media [1, 15]: 1.478
Difference [1, 16]: 0.06
Difference [2, 20]: −0.88
Cholesterol-free [2, 21]: 1.64
Complete [2, 22]: 0.7613

Cn1cc(C(=O)[C@@H]2CCc3nc[nH]c3C2)c2ccccc21 [Ramosetron (Hydrochloride)]
Cholesterol-free media + simvastatin (0.04 μM) [1, 18]: 1.25
Complete Media [1, 19]: 1.513
Difference [1, 16]: 0.26
Difference [2, 12]: 0.03
Cholesterol-free [2, 6]: 0.9223
Complete [2, 7]: 0.9545

CNC[C@H](O)c1cccc(O)c1 [Phenylephrine]
Cholesterol-free media + simvastatin (0.04 μM) [1, 18]: 1.256
Complete Media [1, 19]: 1.518
Difference [1, 16]: 0.26
Cholesterol-free [2, 13]: 1.197
Complete ([2]; NCI-H292 cells, complete media): 0.817
Difference [2, 17]: −0.38

CCCCOc1ccc(C(=O)CCN2CCCCC2)cc1 [Dyclonine (hydrochloride)]
Cholesterol-free media + simvastatin (0.04 μM) [1, 14]: 0.8623
Complete Media [1, 15]: 0.9661
Difference [1, 16]: 0.10
Cholesterol-free [2, 13]: 1.119
Complete ([2]; NCI-H292 cells, complete media): 0.7824
Difference [2, 17]: −0.34

CN(C)C(=O)C(CCN1CCC(O)(c2ccc(Cl)cc2)CC1)(c1ccccc1)c1ccccc1 [Loperamide (hydrochloride)]
Cholesterol-free media + simvastatin (0.04 μM) [1]: 1.197
Complete Media [1]: 0.9577
Difference [1]: −0.24
Cholesterol-free [2]: 1.105
Complete [2]: 0.9631
Difference [2]: −0.14

NC(=O)OC[C@H](N)Cc1ccccc1 [Solriamfetol (hydrochloride)]
Cholesterol-free media + simvastatin (0.04 μM) [1, 18]: 0.997
Complete Media [1, 19]: 1.138
Difference [1, 27]: 0.14
Difference [2, 28]: −0.02
Cholesterol-free [2, 6]: 1.017
Complete [2, 7]: 1

CN[C@@H]1[C@H](O)[C@H](NC)[C@H]2O[C@@]3(O)C(=O)C[C@@H](C)O[C@H]3O[C@@H]2[C@H]1O.Cl.Cl.O.O.O.O.O
Cholesterol-free media + simvastatin (0.04 μM) [1, 18]: 0.773
Complete Media [1, 19]: 0.9222
Difference [1, 16]: 0.15
Difference [2, 20]: −0.93
Cholesterol-free [2, 21]: 1.889
Complete [2, 22]: 0.9594

CC(C)(O)CNc1nc(Nc2ccnc(C(F)(F)F)c2)nc(-c2cccc(C(F)(F)F)n2)n1 [Enasidenib]
Cholesterol-free media + simvastatin (0.04 μM) [1, 14]: 0.8158
Complete Media [1, 15]: 0.8552
Difference [1, 16]: 0.04
Difference [2, 12]: −0.30
Cholesterol-free [2, 13]: 1.312
Complete ([2]; NCI-H292 cells, complete media): 1.013

CCOC(=O)[C@H](C)C[C@@H](Cc1ccc(-c2ccccc2)cc1)NC(=O)CCC(=O)O [Sacubitril hemicalcium salt]
Cholesterol-free media + simvastatin (0.04 μM) [1, 3]: 1.02
Complete Media [1, 4]: 1
Difference [1, 5]: −0.02
Cholesterol-free [2, 6]: 0.6536
Complete [2, 7]: 1.134
Difference [2, 8]: 0.48

CC(C)C(Br)C(=O)NC(N)=O (stereo not shown) [Bromisoval]
Cholesterol-free media + simvastatin (0.04 μM) [1, 29]: 1.086
Complete Media [1, 30]: 0.9233
Difference [1, 31]: −0.16
Difference [2, 28]: −0.47
Cholesterol-free [2, 21]: 1.334
Complete [2, 22]: 0.8605

Cc1c(C(=O)Nc2ccc(S(C)(=O)=O)cc2)cn(CCO)c1-c1ccccc1C(F)(F)F [Esaxerenone]
Cholesterol-free media + simvastatin (0.04 μM) [1, 3]: 0.9763
Complete Media [1, 4]: 0.9118
Difference ([1]; complete media minus cholesterol-free media + simvastatin (0.04 μM), […]): −0.06
Difference [2, 28]: −0.14
Cholesterol-free [2, 24]: 1.29

O=C(O)c1cc(/N=N/c2ccc(O)c(C(=O)O)c2)ccc1O [Olsalazine (Disodium)]
Cholesterol-free media + simvastatin (0.04 μM) [1, 3]: 1.218
Difference [1, 5]: −0.07
Difference [2, 12]: −0.25
Cholesterol-free [2, 13]: 1.211
Complete ([2]; NCI-H292 cells, complete media): 0.9604

O=C(OCCOCCO)c1ccccc1Nc1cccc(C(F)(F)F)c1 [Etofenamate]
Cholesterol-free media + simvastatin (0.04 μM) [1, 9]: 2.387
Complete Media [1, 10]: 1.527
Difference [1, 11]: −0.86
Difference [2, 12]: 0.02
Cholesterol-free [2, 6]: 1.014
Complete [2, 7]: 1.036
